The subject of this assay is CD2F1 mice, L1210 leukemia ip, survival T/C. Description: NCI In Vivo Anticancer Drug Screen. Data for tumor model L1210 Leukemia (intraperitoneal) in CD2F1 (CDF1) mice. To be noted: higher = longer survival. An outline of the steps: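 Implant tumor; dose compound or vehicle; measure endpoint in both groups; report treated divided by control.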
Setting [1] is: endpoint: mean survival time, dose: 25.0 mg/kg/injection, schedule: Q01DX009 (ip), vehicle: Klucel (hydroxypropylcellulose) (HPC).
The mark [2] stands for this setting: endpoint: mean survival time, dose: 50.0 mg/kg/injection, schedule: Q01DX009 (ip), vehicle: Klucel (hydroxypropylcellulose) (HPC).
Setting [3] is: endpoint: mean survival time, dose: 50.0 mg/kg/injection, schedule: Q01DX009 (ip), vehicle: saline.
Setting [4] is: endpoint: mean survival time, dose: 100.0 mg/kg/injection, schedule: Q01DX009 (ip), vehicle: Klucel (hydroxypropylcellulose) (HPC).
[5] abbreviates: endpoint: mean survival time, dose: 100.0 mg/kg/injection, schedule: Q01DX009 (ip), vehicle: saline.
Where [6] appears, read: endpoint: mean survival time, dose: 200.0 mg/kg/injection, schedule: Q01DX009 (ip), vehicle: Klucel (hydroxypropylcellulose) (HPC).
The mark [7] stands for this setting: endpoint: mean survival time, dose: 200.0 mg/kg/injection, schedule: Q01DX009 (ip), vehicle: saline.
[8] abbreviates: endpoint: mean survival time, dose: 25.0 mg/kg/injection, schedule: Q01DX001 (ip), vehicle: Klucel (hydroxypropylcellulose) (HPC).
[9] abbreviates: endpoint: mean survival time, dose: 50.0 mg/kg/injection, schedule: Q01DX001 (ip), vehicle: Klucel (hydroxypropylcellulose) (HPC).
Where [10] appears, read: endpoint: mean survival time, dose: 100.0 mg/kg/injection, schedule: Q01DX001 (ip), vehicle: Klucel (hydroxypropylcellulose) (HPC).
[11] abbreviates: endpoint: mean survival time, dose: 100.0 mg/kg/injection, schedule: Q01DX001 (ip), vehicle: saline with Tween-80.
Setting [12] is: endpoint: mean survival time, dose: 200.0 mg/kg/injection, schedule: Q01DX001 (ip), vehicle: saline with Tween-80.
Where [13] appears, read: endpoint: mean survival time, dose: 400.0 mg/kg/injection, schedule: Q01DX001 (ip), vehicle: saline with Tween-80.
Setting [14] is: endpoint: mean survival time, dose: 100.0 mg/kg/injection, schedule: Q01DX009 (ip), vehicle: saline with Tween-80.
Where [15] appears, read: endpoint: mean survival time, dose: 100.0 mg/kg/injection, schedule: Q04DX003 (ip), vehicle: saline with Tween-80.
[16] abbreviates: endpoint: mean survival time, dose: 200.0 mg/kg/injection, schedule: Q01DX009 (ip), vehicle: saline with Tween-80.
Where [17] appears, read: endpoint: mean survival time, dose: 200.0 mg/kg/injection, schedule: Q04DX003 (ip), vehicle: saline with Tween-80.
The mark [18] stands for this setting: endpoint: mean survival time, dose: 400.0 mg/kg/injection, schedule: Q04DX003 (ip), vehicle: saline with Tween-80.
Setting [19] is: endpoint: mean survival time, dose: 50.0 mg/kg/injection, schedule: Q01DX009 (ip), vehicle: saline with Tween-80.

The record followed here is PubChem BioAssay AID256 (DTP/NCI, 2004).

“And” between values parts separate entries of the source, which are not always exact repeats. Equal values may be shown once. Inconclusive results and toxic doses are left out.

Take `CCN(CC)CCOC(=O)Cc1cccc2c(=O)cc(-c3ccccc3)oc12`: the T/C is, setting by setting: (endpoint: mean survival time, dose: 12.5 mg/kg/injection, schedule: Q01DX009 (ip), vehicle: Klucel (hydroxypropylcellulose) (HPC)) 95 % of control; under setting [1], 95 % of control; (endpoint: mean survival time, dose: 25.0 mg/kg/injection, schedule: Q01DX009 (ip), vehicle: saline) 95 % of control; under setting [2], 92 % of control; under setting [3], 111 % of control; under setting [4], 89 % of control. The T/C reads like this: under setting [5], 96 % of control; under setting [6], 87 % of control; under setting [7], 111 % of control; (endpoint: mean survival time, dose: 400.0 mg/kg/injection, schedule: Q01DX009 (ip), vehicle: Klucel (hydroxypropylcellulose) (HPC)) 93 % of control.

For the compound `Nc1nc2nc(-c3ccccc3)nc(N)c2nc1-c1ccc(N(CCO)CCO)cc1`, the T/C (endpoint: mean survival time, dose: 45.0 mg/kg/injection, schedule: Q01DX001 (ip), vehicle: saline) is 100 % of control; the T/C (endpoint: mean survival time, dose: 67.0 mg/kg/injection, schedule: Q01DX001 (ip), vehicle: saline) is 97 % of control; the T/C (endpoint: mean survival time, dose: 100.0 mg/kg/injection, schedule: Q01DX001 (ip), vehicle: saline) was 97 % of control; the T/C (endpoint: mean survival time, dose: 150.0 mg/kg/injection, schedule: Q01DX001 (ip), vehicle: saline) was 96 % of control.

On to `CCC(C=O)(CC)CCC#N`, for which the T/C is, setting by setting: under setting [8], 96 % of control; under setting [9], 103 % of control; under setting [10], 87 % of control; under setting [11], 103 % of control; under setting [12], 100 % of control; under setting [13], 100 % of control.

Regarding `O=C1CC(=O)N(C2OC(CO)C(O)C2O)C(=O)N1` (centres undefined), the T/C runs as follows: (endpoint: mean survival time, dose: 12.5 mg/kg/injection, schedule: Q01DX005 (ip), vehicle: water) 94 % of control; (endpoint: mean survival time, dose: 25.0 mg/kg/injection, schedule: Q01DX005 (ip), vehicle: water) 100 % of control; (endpoint: mean survival time, dose: 50.0 mg/kg/injection, schedule: Q01DX005 (ip), vehicle: water) 106 % of control; (endpoint: mean survival time, dose: 100.0 mg/kg/injection, schedule: Q01DX005 (ip), vehicle: water) 106 % of control; (endpoint: mean survival time, dose: 200.0 mg/kg/injection, schedule: Q01DX005 (ip), vehicle: water) 105 % of control; (endpoint: mean survival time, dose: 400.0 mg/kg/injection, schedule: Q01DX005 (ip), vehicle: water) 100 % of control.

On to `COC(=O)c1cccc(C)c1O`, for which the T/C was 102 % of control under setting [14]; 97 % of control under setting [15]; 98 % of control under setting [16]; 96 % of control under setting [17]; 93 % of control under setting [18].

Turning to `NC(=O)c1cc([N+](=O)[O-])ccc1NN=NCCCl`, the T/C reads like this: under setting [8], 112 % of control; under setting [9], 150 % of control; under setting [10], 183 % of control; (endpoint: mean survival time, dose: 200.0 mg/kg/injection, schedule: Q01DX001 (ip), vehicle: Klucel (hydroxypropylcellulose) (HPC)) 231 % of control.

Take `NC(CSC(c1ccccc1)(c1ccccc1)c1ccc(-c2ccccc2)cc1)C(=O)O` (centres undefined): the T/C under setting [3] was 111 % of control; the T/C under setting [5] is 108 % of control; the T/C under setting [7] was 105 % of control; the T/C (endpoint: mean survival time, dose: 400.0 mg/kg/injection, schedule: Q01DX009 (ip), vehicle: saline) is 100 % of control.

For the compound `O=[N+]([O-])c1ccc2c(c1)-c1[nH]c3ccccc3c1CS2`, the T/C runs as follows: under setting [4], 102 % of control; under setting [6], 101 % of control.

As to `COc1cc2c(c(OC)c1OC)-c1ccc(OC)c(=O)cc1C(=O)CC2`, the T/C was 121 % of control (endpoint: mean survival time, dose: 5.0 mg/kg/injection, schedule: Q01DX Z (ip), vehicle: saline); 121 % of control (endpoint: mean survival time, dose: 7.0 mg/kg/injection, schedule: Q01DX Z (ip), vehicle: saline); 114 % of control (endpoint: mean survival time, dose: 10.0 mg/kg/injection, schedule: Q01DX Z (ip), vehicle: saline).

Take `COc1cc(OC)c(NC(=O)Nc2c(C)n(C)n(-c3ccccc3)c2=O)cc1Cl`: the T/C reads like this: (endpoint: mean survival time, dose: 12.5 mg/kg/injection, schedule: Q01DX009 (ip), vehicle: saline with Tween-80) 91 % of control; (endpoint: mean survival time, dose: 25.0 mg/kg/injection, schedule: Q01DX009 (ip), vehicle: saline with Tween-80) 97 % of control; under setting [19], 93 % of control and 97 % of control; under setting [16], 89 % of control.

Consider `OCC(O)C(O)C(O)C(O)/C=N\Nc1ccccc1` (centres undefined), for which the T/C runs as follows: under setting [11], 100 % of control; under setting [12], 100 % of control; under setting [13], 95 % of control.

In the case of `CC(C)c1cc(C(=O)O)c(O)c(C(C)C)c1.CC(C)c1cc(C(=O)O)c(O)c(C(C)C)c1.[Cu]`, the T/C (endpoint: median survival time, dose: 6.25 mg/kg/injection, schedule: Q01DX009 (ip), vehicle: saline with Tween-80) is 100 % of control; the T/C (endpoint: median survival time, dose: 12.5 mg/kg/injection, schedule: Q01DX009 (ip), vehicle: saline with Tween-80) was 96 % of control; the T/C (endpoint: median survival time, dose: 25.0 mg/kg/injection, schedule: Q01DX009 (ip), vehicle: saline with Tween-80) is 96 % of control.

With `O=C(O)CCCC(=O)C1CCCCC1`, the T/C by setting is: under setting [19], 103 % of control; under setting [14], 103 % of control; under setting [15], 95 % of control; under setting [16], 98 % of control; under setting [17], 90 % of control.

For `Cn1c(C[N+](C)(C)C)cc2ccccc21`, the T/C runs as follows: under setting [3], 90 % of control; under setting [5], 93 % of control.

Take `CCCCCCCCSCC(CSCCCCCCCC)(CSCCCCCCCC)CSCCCCCCCC`: the T/C was 101 % of control under setting [11], 93 % of control under setting [12] and 93 % of control under setting [13].

With `O=C1CN(c2ccc3ccccc3c2)NO1`, the T/C runs as follows: under setting [15], 93 % of control; under setting [17], 93 % of control.

In the case of `CCOC(N)=O`, the T/C is 98 % of control and 101 % of control (endpoint: mean survival time, dose: 125.0 mg/kg/injection, schedule: Q01DX009 (ip), vehicle: saline); 104 % of control and 109 % of control (endpoint: mean survival time, dose: 250.0 mg/kg/injection, schedule: Q01DX009 (ip), vehicle: saline); 116 % of control and 101 % of control (endpoint: mean survival time, dose: 500.0 mg/kg/injection, schedule: Q01DX009 (ip), vehicle: saline); 89 % of control and 105 % of control (endpoint: mean survival time, dose: 1000.0 mg/kg/injection, schedule: Q01DX009 (ip), vehicle: saline).

Take `CC(C)(C)OOC(=O)C1CCCCCCC1`: the T/C reads like this: under setting [15], 98 % of control; under setting [17], 96 % of control; under setting [18], 96 % of control.

Regarding `O=C(CCl)Nc1ccc(Cl)cc1`, the T/C by setting is: under setting [1], 97 % of control; under setting [2], 96 % of control; (endpoint: mean survival time, dose: 50.0 mg/kg/injection, schedule: Q04DX003 (ip), vehicle: Klucel (hydroxypropylcellulose) (HPC)) 97 % of control; (endpoint: mean survival time, dose: 100.0 mg/kg/injection, schedule: Q04DX003 (ip), vehicle: Klucel (hydroxypropylcellulose) (HPC)) 100 % of control; under setting [15], 106 % of control.

On to `CN1CSC(=S)N(Cc2ccccc2)C1`, for which the T/C under setting [14] is 93 % of control; the T/C under setting [16] was 93 % of control; the T/C (endpoint: mean survival time, dose: 400.0 mg/kg/injection, schedule: Q01DX009 (ip), vehicle: saline with Tween-80) was 93 % of control.

Regarding `OCC1OC(n2ncc3c(NCc4ccco4)ncnc32)C(O)C1O` (centres undefined), the T/C (endpoint: mean survival time, dose: 25.0 mg/kg/injection, schedule: Q01DX009 (ip), vehicle: water) was 95 % of control; the T/C (endpoint: mean survival time, dose: 50.0 mg/kg/injection, schedule: Q01DX009 (ip), vehicle: water) is 95 % of control; the T/C (endpoint: mean survival time, dose: 100.0 mg/kg/injection, schedule: Q01DX009 (ip), vehicle: water) is 100 % of control; the T/C (endpoint: mean survival time, dose: 200.0 mg/kg/injection, schedule: Q01DX009 (ip), vehicle: water) is 104 % of control; the T/C (endpoint: mean survival time, dose: 400.0 mg/kg/injection, schedule: Q01DX009 (ip), vehicle: water) is 106 % of control.

Turning to `Nc1nc2c(ncn2-c2cccc(NC(=O)CBr)c2)c(=O)[nH]1`, the T/C is, setting by setting: (endpoint: mean survival time, dose: 37.5 mg/kg/injection, schedule: Q01DX001 (ip), vehicle: saline with Tween-80) 95 % of control; (endpoint: mean survival time, dose: 75.0 mg/kg/injection, schedule: Q01DX001 (ip), vehicle: saline with Tween-80) 100 % of control; (endpoint: mean survival time, dose: 150.0 mg/kg/injection, schedule: Q01DX001 (ip), vehicle: saline with Tween-80) 92 % of control.
